“Also recorded” adds a separate entry of the source. Bridge positions count the residues as written; N and C are the ends. Square brackets hold non-standard residues; d marks the D form. Peptide text beside a SMILES is read from it. R8 = C=CCCCCCC[C@@](C)(N)C(=O)O; S5 = C=CCCC[C@](C)(N)C(=O)O
Experiments:
APC/C [1] = experiment: Ubiquitinated securin (Mean ± SD); conditions: 100 µM
Text: Table printed on a drawing sheet, Figure 6
Head of the field: Ubiquitinated securin (Mean ± SD)

APC/C (APC11) = target: T1, APC/C (APC11) (Homo sapiens, UniProt Q9NYG5); experiment: Pull-down binding assay in HeLa K cell extract, APC/C; conditions: Pra peptide clicked to azide agarose or magnetic beads, Western blot
T1 construct: endogenous in cells; host or cells: HeLa K cell extract
Protocol: For the protein transfer, the 0.45 μm Immobilon-FL PVDF membrane (Merck Millipore) was used. The membrane was activated in ethanol and then transferred to the Blotting buffer (50 mM SDS-MOPS, 50 mM Tris base, 0.1% SDS, 1 mM EDTA, 20% EtOH). The proteins were transferred using a wet transfer for 1.5 h at 400 mA. Subsequently, the membrane was incubated with the blocking solution, 10% milk in PBS-T (0.02% Tween-20 in PBS), for 1 h at room temperature. To detect proteins of the interest, the membrane was incubated with primary antibodies overnight at 4° C. Followed by washing the membrane 3 times 10 min with PBS-T and incubation with IRDye fluorescently labelled secondary antibodies for 1 h. Prior detection, the membrane was twice washed with PBS-T for 10 min and once with PBS for 10 min. The detection was done using the quantitative near-infrared scanning system Odyssey (LI-COR Biosciences).
HeLa K cell pellet was re-suspended in the extraction buffer (30 mM HEPES pH 7.5, 175 mM NaCl, 2.5 mM MgCl2, 0.25% NP40, 10% glycerol, 1 mM DTT) supplemented with 10 μM MG132 (VWR), 1 mM PMSF (Sigma-Aldrich), complete protease inhibitor cocktail (Roche) and PhosSTOP phosphatase inhibitors (Roche) and incubated for 20 min on ice, followed by centrifugation of cell debris for 15 min at 4° C. 16 100 g. In mean time, inhibitor molecules containing Propargyl (Pra) chemical group were covalently attached to the azide agarose or azide magnetic resin (Jena Bioscience) by Cu(I)-catalysed azide-alkyne cycloaddition reaction. Specifically, the inhibitor molecules were mixed with azide agarose resin in ratio 0.125 μmol inhibitor/25 μl agarose resin and azide magnetic resin in ratio 0.018 μmol inhibitor/20 μl magnetic resin. The reaction was catalysed by 1 mM CuSO4, 0.1 mM TBTA (Sigma-Aldrich) and 1 mM Sodium ascorbate and was performed on the rotating wheel for 30 min at room temperature in the volume of 1 ml. Subsequently, the resin was washed 5 times with the extraction buffer. The inhibitor-agarose resin was added to 1 mg of HeLa K cell extract and the inhibitor-magnetic resin was added to 0.5 mg of HeLa K cell extract followed by incubation at 4° C. for 2 h. Followed by washing the resin 5 times with the extraction buffer. Pull-down proteins were eluted by boiling for 15 min with 1×LDS sample buffer supplemented with 100 mM DTT (agarose resin) or by incubation with 1×LDS sample buffer for 10 min at room temperature followed by taking supernatant that was supplemented with 100 mM DTT and boiling it for 10 min. Samples were subjected to SDS PAGE and Western blot analysis.
HeLa K cell pellet was re-suspended in the extraction buffer (30 mM HEPES pH 7.5, 175 mM NaCl, 2.5 mM MgCl2, 0.25% NP40, 10% glycerol, 1 mM DTT supplied with complete protease inhibitor cocktail (Roche), PhosSTOP phosphatase inhibitors (Roche), 1 mM PMSF, 10 μM MG132) and incubated for 20 min on ice, followed by centrifugation to clear the lysate for 15 min at 4° C. 16,100 g. In the meantime, inhibitor molecules containing the propargyl-Gly-OH (Pra) chemical group were covalently attached to the azide agarose resin (Jena Bioscience) by Cu(I)-catalysed azide-alkyne cycloaddition reaction. Specifically, the inhibitor molecules were mixed with azide agarose resin in ratio 0.125 μmol inhibitor/20 μl agarose resin. The reaction was catalysed by 0.1 mM CuSO4, 0.5 mM THPTA (Sigma-Aldrich) and 5 mM Sodium ascorbate and was performed on the rotating wheel for 30 min at room temperature in the volume of 1 ml. […]

APC/C [2] = target: T2, APC/C (Homo sapiens, UniProt Q9NYG5); experiment: In vitro APC/C ubiquitination assay with different E2 enzymes (UBE2C, UBE2D, UBE2S), Ub-cyclin B1 substrate; assay type: biochemical; conditions: 100 μM, reaction time 40 min
T2 construct: made in house; host or cells: SF9 insect cells (baculovirus)
Protocol: (§1) Proteins were separated by SDS-PAGE electrophoresis using precast Bolt 4-12% Bis-Tris Plus protein gels (Thermo Fisher Scientific) and Criterion XT Bis-Tris Midi Protein Gels (Bio-Rad). In different experiments, various conditions were used: in vitro APC/C ubiquitination assays—165 V, 40 min, SDS-MES running buffer (50 mM MES, 50 mM Tris base, 0.1% SDS, 1 mM EDTA, pH 7.3; Thermo Fisher Scientific); in vitro APC/C ubiquitination assays determining KM—165V, 1 h, SDS-MOPS running buffer (50 mM MOPS, 50 mM Tris base, 0.1% SDS, 1 mM EDTA, pH 7.7; Thermo Fisher Scientific); pull-down binding assay—165 V, 35 min, SDS-MES running buffer.
APC/C-dependent ubiquitination reactions were performed at 30° C. in 30 mM HEPES pH 7.4, 175 mM NaCl, 8 mM MgCl2, 0.05% Tween-20, 1 mM DTT and 5% glycerol and contained 20 nM recombinant APC/C (note, for testing the first generation of inhibitors, APC/C and Cdc20 immunoprecipitated from mitotic HeLa K cells was used), 340 nM Cdc20, 46 nM GST-UBA1, 340 nM UBE2C (alternatively 400 nM UBE2D1, 280 nM UBE2S), 21 μM His6-ubiquitin or if it is indicated 21 μM methylated-ubiquitin (BostonBiochem), 2.6 mM ATP, 10 mM phosphocreatine and 11 μM creatine kinase. […] Detection of fluorescently labelled substrates was done by quantitative near-infrared scanning system Odyssey.

APC/C [3] = target: T2, APC/C; experiment: In vitro APC/C ubiquitination assay driven by the E2 enzyme UBE2C, fluorophore-labelled securin substrate; assay type: biochemical
Protocol: as §1
APC/C-dependent ubiquitination reactions were performed at 30° C. in 30 mM HEPES pH 7.4, 175 mM NaCl, 8 mM MgCl2, 0.05% Tween-20, 1 mM DTT and 5% glycerol and contained 20 nM recombinant APC/C (note, for testing the first generation of inhibitors, APC/C and Cdc20 immunoprecipitated from mitotic HeLa K cells was used), 340 nM Cdc20, 46 nM GST-UBA1, 340 nM UBE2C (alternatively 400 nM UBE2D1, 280 nM UBE2S), 21 μM His6-ubiquitin or if it is indicated 21 μM methylated-ubiquitin (BostonBiochem), 2.6 mM ATP, 10 mM phosphocreatine and 11 μM creatine kinase. As substrates, 35 nM fluorophore-labeled ubiquitin-cyclin B and 50 nM fluorophore-labeled securin were standardly used (fluorophore IRDye 800CW (LI-COR) was used for labelling). In case of KM and kcat determination, 50, 100, 250, 500, 750, 1000, 1250, 2500 and 5000 nM fluorophore-labelled securin was used. The reaction was done in the volume of 15 μl, it was quenched after the indicated time with LDS sample buffer (Thermo Fisher Scientific) supplemented with 100 mM DTT and subjected to SDS-PAGE. Detection of fluorescently labelled substrates was done by quantitative near-infrared scanning system Odyssey.

SW480 cells = experiment: Live cell imaging of SW480 cells; assay type: cell-based, human; conditions: SW480, 50 μM, imaged 24 h
Protocol: (§2) Automated time-lapse microscopy was performed using ImageXpress Micro XLS wide-field screening microscope (Molecular Devices) equipped with a 10×, 0.5 NA., 20×, 0.7 NA, and 40×, 0.95 NA Plan Apo air objectives (Nikon), a laser-based autofocus and a full environmental control (5% CO2, 37° C.). Cells were grown in 96-well plastic bottom plates (clear, Greiner Bio-One) and for live cell imaging media was changed to imaging media. Imaging media for A549, HeLa K and SW480 was DMEM without phenol red and riboflavin (Thermo Fisher Scientific), supplemented with 10% (v/v) FBS, 1% (v/v) Glutamax, and 1% (v/v) penicillin-streptomycin; imaging media for HT-1080 and RKO was RPMI 1640 without phenol red (Thermo Fisher Scientific), supplemented with 10% (v/v) FBS, and 1% (v/v) penicillin-streptomycin.
(§3) A549 (5000-5500 cells), HeLa K (3000-4000 cells), HT-1080 (4000 cells), RKO (5000 cells), and SW480 (7000-8000 cells) cells were seeded into 96-well plates one day prior to treatment with compounds of the invention. Cells were treated with 50 μM of compound G3_mod1_mini PEG and cell division was monitored by live cell imaging using an ImageXpress Micro XLS wide-field screening microscope and images were acquired every 3 min for time courses of 24 h. The length of mitosis was determined manually.

RKO cells = experiment: Live cell imaging of RKO cells; assay type: cell-based, human; conditions: 50 μM, imaged 24 h
Protocol: as §2, §3

HT-1080 cells = experiment: Live cell imaging of HT-1080 cells; assay type: cell-based, human; conditions: HT-1080, 50 μM, imaged 24 h
Protocol: as §2, §3

HeLa K cells = experiment: Live cell imaging of HeLa K cells; assay type: cell-based, human; conditions: 50 μM
Protocol: Automated time-lapse microscopy was performed using ImageXpress Micro XLS wide-field screening microscope (Molecular Devices) equipped with a 10×, 0.5 NA., 20×, 0.7 NA, and 40×, 0.95 NA Plan Apo air objectives (Nikon), a laser-based autofocus and a full environmental control (5% CO2, 37° C.). Cells were grown in 96-well plastic bottom plates (clear, Greiner Bio-One) and for live cell imaging media was changed to DMEM without phenol red and riboflavin (Thermo Fisher Scientific), supplemented with 10% (v/v) FBS, 1% (v/v) Glutamax, 1% (v/v) penicillin-streptomycin, and 0.5 μg/ml amphotericin B.
HeLa K cells were seeded into 96-well plates (4000-4500 cells) one day prior the treatment with compounds of the invention. Cells were treated with 50 μM of compound G3_mod1_mini PEG and cell division was monitored by live cell imaging using ImageXpress Micro XLS wide-field screening microscope, images were acquired every 3 min for time courses of 48 h. The length of mitosis was determined manually.
as §2, §3

A549 cells = experiment: Live cell imaging of A549 cells; assay type: cell-based, human; conditions: A549, 50 μM, imaged 24 h
Protocol: as §2, §3

| binding to the APC/C (pull-down) (APC/C (APC11)) | difference between KM without and with inhibitor (APC/C [3]; 3 μM G3-6, securin titration, unpaired t test p=0.0886) | IC50 (APC/C [3]; UBE2C, 0.01-100 μM, reaction time 10 min, methylated ubiquitin, ubiquitinated securin, 4 independent experiments) [µM] | Ki (APC/C [3]; model for non-competitive inhibition in Prism 6.0, 3 μM inhibitor, securin 50-5000 nM, reaction time 2 min, read-out: inhibitory constant (Ki)) [µM] | mechanism of action (type of the inhibition) (APC/C [3]; titration of substrate (securin)) | IC50 (in words) (APC/C [3]; titration of the G3-6 molecule) | Compound | Ubiquitinated securin (Mean ± SD) (APC/C [1]) [%] | inhibition of APC/C activity driven by different E2 enzymes (APC/C [2]) | inhibition of APC/C activity in vitro compared with TAME (APC/C [3]; 100 μM, UBE2C, reaction time 45 min, 3 independent assays) | inhibition of APC/C activity in vitro, titration (APC/C [3]; 25, 50, 75 and 100 μM, UBE2C, reaction time 45 min) | cell fate (cell death) (SW480 cells) | effect on mitosis (length of mitosis) (SW480 cells) | effect on mitosis (length of mitosis) (RKO cells) | cell fate (cell death) (HT-1080 cells) | effect on mitosis (length of mitosis) (HT-1080 cells) | cell fate (cell death) (HeLa K cells; imaged 24 h) | effect on mitosis (length of mitosis) (HeLa K cells; imaged 24 h) | cell fate (cell death) (HeLa K cells; imaged 48 h) | effect on mitosis (length of mitosis) (HeLa K cells; imaged 48 h) | effect on mitosis (length of mitosis) (A549 cells) |
| --- | --- | --- | --- | --- | --- | --- | --- | --- | --- | --- | --- | --- | --- | --- | --- | --- | --- | --- | --- | --- |
| binds specifically to the APC/C | not significant | 1.96 | 5 | non-competitive inhibitor | low micromolar range | CC[C@H](C)[C@@H]1NC(=O)[C@H](CCC(=O)O)NC(=O)[C@H](CCCCN)NC(=O)[C@H]([C@@H](C)CC)NC(=O)[C@](C)(NC(=O)[C@H](Cc2c[nH]c3ccccc23)NC(=O)[C@H](Cc2c[nH]c3ccccc23)NC(=O)[C@H](CCC(=O)O)NC(C)=O)CCCCCCC=CCCC[C@@](C)(C(=O)N[C@@H](CCCNC(=N)N)C(=O)N[C@@H](CCCNC(=N)N)C(=O)N[C@@H](C)C(N)=O)NC(=O)[C@H](CCCNC(=N)N)NC(=O)[C@H](CCC(N)=O)NC1=O [G3-6, Ac-cyclo(4,11)-EWWZIKEIQRXRRA-NH2] (Ac-EWW[R8]IKEIQR[S5]RRA-NH2; staple 4-11) | 3.6 ± 5 | inhibits APC/C in vitro independently on employed E2 enzymes | inhibit APC/C in vitro more efficiently than TAME | inhibits APC/C in vitro the most potently | – | – | – | – | – | – | – | – | – | – |
| – | – | – | – | – | – | Ac-GFWFG-NH(CH2)2OCH2CO-cyclo(4,11)-EWWZIKEIQRXRRA-NH2 ({Ac-Gly-Phe-Trp-Phe-Gly-miniPEG}-EWW[R8]IKEIQR[S5]RRA-NH2; staple 4-11) [G3-6_mod1_miniPEG] | – | – | – | – | cause cell death after a metaphase arrest in a subpopulation | prolongs mitosis | prolongs mitosis | cause cell death after a metaphase arrest in a subpopulation | prolongs mitosis | cause cell death after a metaphase arrest in a subpopulation | prolongs mitosis | causes cell death after metaphase | prolongs mitosis by arresting cells in metaphase; also recorded: induces a metaphase delay | prolongs mitosis |

Reference: patent publication US20230391828A1, “REGULATORS OF CELL DIVISION” (TECHNISCHE UNIVERSITÄT DRESDEN, priority 2020, published 2023)
